The source of these data is patent US5591741A, “Fungicidal spiroheterocyclic derivatives” (American Cyanamid Company, priority 1993, dated 1997).

One assay relates to Plasmopara viticola. The assay can be described thus: Antisporulant activity against vine downy mildew (PVA). Conditions: vine leaves, antisporulant foliar spray, 600 ppm, 750 l/ha. It counts as in vivo. The method, boiled down: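 Cabernet Sauvignon vines (~8 cm) inoculated on lower leaf surfaces with 5×10^4 zoosporangia/ml, held 24 h at 21° C high humidity then 24 h glasshouse. Infected leaves sprayed underside with 600 ppm compound in 1:1 water/acetone, 0.04% Tween 20, 750 l/ha; 96 h glasshouse, 24 h humidity. Sporulating leaf area rated versus control.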

For the next assay, the system named is Alternaria solani. The assay can be described thus: Activity against tomato early blight (AS). The format is in vivo. Conditions: Table VI; tomato seedlings, contact prophylactic foliar spray, 4 days. The method, boiled down:
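Foliar contact prophylactic spray on tomato seedlings (cv Outdoor Girl, second true leaf expanded) in acetone/water 50:50 with 0.04% Tween 20; 24 h at 20° C, 40% R.H., then inoculation with 10^4 spores/ml A. solani conidia. Kept moist at 21° C; lesion cover rated 4 days post-inoculation against untreated or diluent-sprayed controls.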

The test system of a further assay is Botrytis cinerea. Description: Direct protectant activity against broad bean grey mould (BCB). It counts as in vivo. Conditions: direct protectant foliar spray, 600 ppm, 4 days. The essentials: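 Broad bean plants (cv The Sutton, two leaf pairs) sprayed on upper leaf surfaces at 600 ppm, then inoculated 24 h later with 10^6 conidia/ml. Kept 4 days at 22 °C, high humidity; disease control rated from % leaf area with lesions against untreated or diluent controls.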

Another assay has as its system Leptosphaeria nodorum. Description: Activity against wheat leafspot (LN). The format is in vivo. Conditions: direct therapeutic foliar spray, 600 ppm, 6-8 days. The essentials: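 Wheat cv Norman at single-leaf stage spray-inoculated with 1.5×10^6 conidia/ml, held 24 h at high humidity, then sprayed therapeutically with test compound at 600 ppm. Kept 6-8 days at 22° C, 70% humidity; lesion density per leaf rated against untreated or diluent-sprayed controls.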

Assay [1] relates to Erysiphe graminis f.sp. hordei. Description: Activity against barley powdery mildew, direct therapeutic (EGT). It counts as in vivo. Conditions: direct therapeutic foliar spray, 600 ppm, up to 7 days. The essentials: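 Barley seedlings (cv. Golden Promise, single-leaf stage) were dusted with mildew conidia one day before a therapeutic foliar spray of 600 ppm compound. Plants were kept at 18 °C and 40% humidity for up to 7 days, and sporulating leaf area was rated against untreated or diluent-sprayed controls.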

The test system of assay [2] is Erysiphe graminis f.sp. hordei. Description: Direct protectant activity against barley powdery mildew (EGP). The format is in vivo. Conditions: direct protectant foliar spray, 8 days. The essentials:
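Barley seedlings (cv Golden Promise, single-leaf stage) were foliar-sprayed, held 24 h at 18 °C/40% RH, then dusted with mildew conidia. After 8 days at 18 °C/40% RH, sporulating leaf area was scored as a rating against untreated or diluent-sprayed controls.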

In the next assay the test system is Phytophthora infestans. The format is in vivo. Conditions: tomato, direct protectant foliar spray.
Assay [3] has as its system Pseudocercosporella herpotrichoides. The assay can be described thus: Activity against wheat eyespot in-vitro (PHI). It counts as cell-based. Conditions: 10 ppm, 10 days, 20° C., mycelial growth. The essentials:
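P. herpotrichoides mycelial fragments (5×10^4/ml) grown in half-strength PDB with compound at 10 ppm final, added from acetone. Incubated 10 days at 20 °C; mycelial growth rated against untreated or diluent controls.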

Another assay has as its system Rhizoctonia solani. Description: Activity against Rhizoctonia in-vitro (RSI). It counts as cell-based. Conditions: 10 ppm, 10 days, 20° C., mycelial growth. The essentials:
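R. solani mycelial fragments (5×10^4/ml) in half-strength Potato Dextrose Broth with compound added from acetone to 10 ppm final. Mycelial growth assessed after 10 days at 20° C, rated against untreated or diluent control.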

The subject of a further assay is Venturia inaequalis. Description: Activity against apple scab in-vitro (VII). Conditions: 10 ppm, 10 days, 20° C., mycelial growth. It counts as cell-based. The method, boiled down: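 Compound in acetone was tested at 10 ppm final in half-strength Potato Dextrose Broth inoculated with V. inaequalis mycelial fragments and spores at 5×10^4 propagules/ml. After 10 days at 20° C, mycelial growth was rated against untreated or diluent controls.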

For a further assay, the system named is Pyricularia oryzae. It counts as in vivo. Conditions: rice seedlings, direct therapeutic foliar spray, 600 ppm, 4-5 days.

Take `CC(C)(C1CCCCC1)C1CCC2(CC1)CC(NC1CCCCC1)CO2` (stereo not shown) [Compound 142]: the “disease control rating PVA” value in the assay with Plasmopara viticola is 0 (less than 50% disease control). For the same molecule, the “disease control rating AS” value with Alternaria solani is on record as 0 (less than 50% disease control). In addition, the “disease control rating BCB” value in the assay on Botrytis cinerea is recorded as 0 (less than 50% disease control). For the same molecule, the “disease control rating LN” value with Leptosphaeria nodorum is 0 (less than 50% disease control). The “disease control rating EGT” value in assay [1] is given as 2 (greater than 80% disease control). Further, the “disease control rating EGP” value in [2] is 2 (greater than 80% disease control). Also, in the assay on Phytophthora infestans, the “disease control rating PIP” value is 1 (about 50-80% disease control). Further, the “disease control rating PHI” value in [3] was 2 (greater than 80% disease control). Also, the “disease control rating RSI” value in the assay with Rhizoctonia solani is reported as 2 (greater than 80% disease control). In the assay with Venturia inaequalis, the “disease control rating VII” value is 2 (greater than 80% disease control). In addition, the “disease control rating PO” value in the assay with Pyricularia oryzae is given as 0 (less than 50% disease control).
On to `CC(C)CN(CC(C)C)C1COC2(CCC(C(C)(C)C)CC2)C1` (stereo not shown) [Compound 143], for which the “disease control rating PVA” value in the assay with Plasmopara viticola is reported as 0 (less than 50% disease control). Further, the “disease control rating AS” value with Alternaria solani is given as 0 (less than 50% disease control). Further, the “disease control rating BCB” value with Botrytis cinerea is on record as 0 (less than 50% disease control). Moreover, the “disease control rating LN” value with Leptosphaeria nodorum is on record as 0 (less than 50% disease control). Besides, the “disease control rating EGT” value in [1] is on record as 2 (greater than 80% disease control). Besides, the “disease control rating EGP” value in assay [2] is 2 (greater than 80% disease control). Further, in the assay with Phytophthora infestans, the “disease control rating PIP” value is listed as 0 (less than 50% disease control). In addition, the “disease control rating PHI” value in [3] is given as 0 (less than 50% disease control). Also, the “disease control rating RSI” value with Rhizoctonia solani is reported as 0 (less than 50% disease control). Besides, the “disease control rating VII” value in the assay on Venturia inaequalis is recorded as 0 (less than 50% disease control). In addition, in the assay with Pyricularia oryzae, the “disease control rating PO” value is recorded as 0 (less than 50% disease control).
For `CC(C)(C)C1CCC2(CC1)CC(CN)CO2` (stereo not shown) [Compound 181, 8-t-Butyl-3-aminomethyl-1-oxaspiro(4,5)decane], in the assay on Plasmopara viticola, the “disease control rating PVA” value was 0 (less than 50% disease control). The “disease control rating AS” value in the assay with Alternaria solani is 0 (less than 50% disease control). The “disease control rating BCB” value in the assay on Botrytis cinerea is reported as 0 (less than 50% disease control). In the assay with Leptosphaeria nodorum, the “disease control rating LN” value is reported as 0 (less than 50% disease control). Also, the “disease control rating EGT” value in [1] is recorded as 2 (greater than 80% disease control). Also, the “disease control rating EGP” value in [2] was 2 (greater than 80% disease control). Besides, the “disease control rating PIP” value in the assay on Phytophthora infestans was 2 (greater than 80% disease control). Also, the “disease control rating PHI” value in [3] is reported as 0 (less than 50% disease control). Moreover, in the assay on Rhizoctonia solani, the “disease control rating RSI” value is 0 (less than 50% disease control). In addition, in the assay on Venturia inaequalis, the “disease control rating VII” value is given as 0 (less than 50% disease control). Further, in the assay with Pyricularia oryzae, the “disease control rating PO” value was 0 (less than 50% disease control).
With `CC(C)(C)C1CCC2(CC1)CC(CNC1CCCCC1)CO2` (stereo not shown) [Compound 182, 8-t-Butyl-3-cyclohexylaminomethyl-1-oxaspiro(4,5)decane], the “disease control rating PVA” value with Plasmopara viticola was 0 (less than 50% disease control). In the assay on Alternaria solani, the “disease control rating AS” value was 0 (less than 50% disease control). Also, the “disease control rating BCB” value with Botrytis cinerea is recorded as 1 (about 50-80% disease control). Further, in the assay on Leptosphaeria nodorum, the “disease control rating LN” value is reported as 1 (about 50-80% disease control). In assay [1], the “disease control rating EGT” value is listed as 2 (greater than 80% disease control). Besides, the “disease control rating EGP” value in assay [2] was 2 (greater than 80% disease control). Moreover, the “disease control rating PIP” value with Phytophthora infestans is given as 0 (less than 50% disease control). Further, the “disease control rating PHI” value in assay [3] is recorded as 1 (about 50-80% disease control). For the same molecule, the “disease control rating RSI” value in the assay on Rhizoctonia solani is on record as 2 (greater than 80% disease control). Moreover, the “disease control rating VII” value in the assay with Venturia inaequalis is 2 (greater than 80% disease control). The “disease control rating PO” value in the assay with Pyricularia oryzae is on record as 0 (less than 50% disease control).
As to `CCCCCCCCNCC1COC2(CCC(C(C)(C)C)CC2)C1` (stereo not shown) [Compound 183, 8-t-butyl-3-n-octylaminomethyl-1-oxaspiro(4,5)-decane], the “disease control rating PVA” value with Plasmopara viticola was 0 (less than 50% disease control). For the same molecule, the “disease control rating AS” value in the assay with Alternaria solani is on record as 0 (less than 50% disease control). Also, the “disease control rating BCB” value with Botrytis cinerea is listed as 0 (less than 50% disease control). In the assay with Leptosphaeria nodorum, the “disease control rating LN” value is recorded as 0 (less than 50% disease control). For the same molecule, in [1], the “disease control rating EGT” value is 2 (greater than 80% disease control). The “disease control rating EGP” value in [2] is given as 2 (greater than 80% disease control). For the same molecule, the “disease control rating PIP” value with Phytophthora infestans is 1 (about 50-80% disease control). The “disease control rating PHI” value in assay [3] was 1 (about 50-80% disease control). Also, the “disease control rating RSI” value with Rhizoctonia solani was 2 (greater than 80% disease control). In the assay on Venturia inaequalis, the “disease control rating VII” value was 2 (greater than 80% disease control). Also, the “disease control rating PO” value in the assay with Pyricularia oryzae is 0 (less than 50% disease control).
Turning to `CCCCCCNCC1COC2(CCC(C(C)(C)C)CC2)C1` (stereo not shown) [Compound 184, 8-t-butyl-3-n-hexylaminomethyl-1-oxaspiro(4,5)decane], in the assay with Plasmopara viticola, the “disease control rating PVA” value is reported as 0 (less than 50% disease control). Besides, the “disease control rating AS” value in the assay with Alternaria solani is 0 (less than 50% disease control). The “disease control rating BCB” value in the assay on Botrytis cinerea is on record as 2 (greater than 80% disease control). The “disease control rating LN” value with Leptosphaeria nodorum is 0 (less than 50% disease control). Moreover, the “disease control rating EGT” value in assay [1] is recorded as 2 (greater than 80% disease control). For the same molecule, the “disease control rating EGP” value in assay [2] is on record as 2 (greater than 80% disease control). Also, the “disease control rating PIP” value in the assay with Phytophthora infestans is 0 (less than 50% disease control). In addition, the “disease control rating PHI” value in assay [3] was 1 (about 50-80% disease control). Moreover, the “disease control rating RSI” value in the assay on Rhizoctonia solani is listed as 2 (greater than 80% disease control). In addition, the “disease control rating VII” value in the assay with Venturia inaequalis is recorded as 2 (greater than 80% disease control). In addition, in the assay with Pyricularia oryzae, the “disease control rating PO” value is reported as 0 (less than 50% disease control).
Consider `CC(C)(C)C1CCC2(CC1)CC(CNC1CCCCC1)CO2` (stereo not shown) [Compound 185], for which the “disease control rating PVA” value in the assay with Plasmopara viticola is reported as 0 (less than 50% disease control). The “disease control rating AS” value in the assay with Alternaria solani was 1 (about 50-80% disease control). Besides, the “disease control rating BCB” value with Botrytis cinerea is 1 (about 50-80% disease control). Also, the “disease control rating LN” value in the assay on Leptosphaeria nodorum is 0 (less than 50% disease control). The “disease control rating EGT” value in assay [1] is 2 (greater than 80% disease control). Moreover, in assay [2], the “disease control rating EGP” value is 2 (greater than 80% disease control). Further, the “disease control rating PIP” value with Phytophthora infestans is 0 (less than 50% disease control). Moreover, the “disease control rating PHI” value in assay [3] is on record as 0 (less than 50% disease control). The “disease control rating RSI” value with Rhizoctonia solani is listed as 0 (less than 50% disease control). In the assay with Venturia inaequalis, the “disease control rating VII” value is listed as 0 (less than 50% disease control). The “disease control rating PO” value in the assay with Pyricularia oryzae is reported as 0 (less than 50% disease control).
Consider `CC(C)CN(CC(C)C)CC1COC2(CCC(C(C)(C)C)CC2)C1` (stereo not shown) [Compound 186], for which the “disease control rating PVA” value with Plasmopara viticola is given as 0 (less than 50% disease control). Moreover, in the assay with Alternaria solani, the “disease control rating AS” value is on record as 0 (less than 50% disease control). Moreover, the “disease control rating BCB” value in the assay with Botrytis cinerea is on record as 0 (less than 50% disease control). In the assay with Leptosphaeria nodorum, the “disease control rating LN” value was 0 (less than 50% disease control). Moreover, the “disease control rating EGT” value in assay [1] is 0 (less than 50% disease control). For the same molecule, the “disease control rating EGP” value in [2] is listed as 2 (greater than 80% disease control). For the same molecule, the “disease control rating PIP” value with Phytophthora infestans was 0 (less than 50% disease control). The “disease control rating PHI” value in assay [3] is reported as 0 (less than 50% disease control). The “disease control rating RSI” value in the assay with Rhizoctonia solani is 0 (less than 50% disease control). Moreover, the “disease control rating VII” value in the assay with Venturia inaequalis is 0 (less than 50% disease control). In the assay with Pyricularia oryzae, the “disease control rating PO” value is 0 (less than 50% disease control).
